# PubChem BioAssay (NCI)
#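 96-well plates; 48 h exposure; 5 concentrations. Endpoints by linear interpolation between flanking doses. Not reached: highest tested concentration assigned. The concentration for 50% growth inhibition is given as GI50. TGI: concentration producing complete growth inhibition.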
# Assays:
# Test in all cases: growth of human tumour cells (NCI), 48 h
# [1] = system: NCI-H23 lung
# [2] = system: KM12 colon
# [3] = system: MCF7 breast
# [4] = system: NCI/ADR-RES ovarian
# [5] = system: UACC-257 melanoma
# [6] = system: SF-539 CNS
# [7] = system: NCI-H226 lung
# [8] = system: HL-60(TB) leukemia
# [9] = system: ACHN renal
# [10] = system: M14 melanoma
Compound,GI50 [1] [µM],TGI [1] [µM],GI50 [2] [µM],TGI [2] [µM],GI50 [3] [µM],TGI [3] [µM],GI50 [4] [µM],TGI [4] [µM],GI50 [5] [µM],TGI [5] [µM],GI50 [6] [µM],TGI [6] [µM],GI50 [7] [µM],TGI [7] [µM],GI50 [8] [µM],TGI [8] [µM],GI50 [9] [µM],TGI [9] [µM],GI50 [10] [µM],TGI [10] [µM]
CCCCCCCCCCCCCCCC(=O)OCC1OC(OCCCC)[C@H](O[C@@H]2OC(C)C(OC(=O)CCC)C(O)C2O)C(O)C1O (stereo partly specified),16.2,30.2,17.1,31.9,30.1,> 100,18,32.3,22.6,61.4,21,36.8,16.8,36.2,14.5,32,18.1,35.2,–,–
Nc1ncc(-c2ccc3ncnc(N4CCc5cc(F)c(Cl)cc54)c3c2)cc1C=O,2.35,> 100,2.86,> 100,1.7,> 100,2.82,> 100,1.64,> 100,2.38,> 100,0.861,> 100,0.403,3.86,0.638,> 100,1.85,> 100
Cn1ccc(S(=O)(=O)N2CCC[C@H](Nc3nccc(-c4c(-c5cccc(O)c5)nc5occn45)n3)C2)n1,12,41.8,18.3,> 86.9,12.8,55.3,> 78.7,> 100,0.224,90.7,17,59.2,11.5,> 84.8,10.8,32.3,7.19,> 100,0.112,13.9
C/C(=N\O)C1CC(CC(=O)O)C1(C)C (stereo unspecified),–,> 100,–,> 100,–,> 100,–,> 100,–,> 100,–,> 100,–,> 100,–,> 100,–,> 100,–,> 100
CC1(C)CCC2(C(=O)O)C(O)CC3(C)C(=CCC4C5(C)CCC(OC6OCC(O)C(O)C6OC6OCC(O)C(O)C6OC6OCC(O)C(OC7OC(CO)C(O)C(O)C7O)C6O)C(C)(C)C5CCC43C)C2C1 (stereo unspecified),–,49.7,–,44.1,–,> 100,–,> 100,–,> 100,–,> 100,–,> 100,–,48.3,–,> 100,–,> 100
O=C1NC(=NCCc2ccccc2F)S/C1=C\c1ccc2ncccc2c1,6.12,> 25,4.02,> 25,1.68,> 25,9.2,> 25,9.35,> 25,5.18,> 25,7.59,> 25,9.14,22.1,9.06,> 25,8.42,> 25
Cc1ncnc2c1ccn2[C@@H]1C[C@H](Oc2cc(C(F)F)c(F)c3c2CNCC3)[C@@H](O)[C@H]1O,–,–,> 100,> 100,> 100,> 100,> 100,> 100,> 100,> 100,> 100,> 100,> 100,> 100,> 100,> 100,> 100,> 100,> 100,> 100
CCN(CC)CCOc1ccc2c(-c3ccccc3)c(-c3ccc(OC)cc3)c(=O)oc2c1,4.11,16.5,3.83,14.1,4.33,14.1,4.51,17.5,2.47,7,5.48,19.1,13.6,32.5,1.7,3.98,6.82,20.1,1.94,3.66
N=C1C(c2nc3ccccc3c(=O)[nH]2)=C(O)CN1c1cccc(Cl)c1,4.67,> 100,2.01,> 100,4.19,> 100,3.16,> 100,> 100,> 100,3.51,24.8,> 100,> 100,2.34,> 100,3.4,> 100,5.26,> 100
Cn1cc(Nc2nccc(-c3ccc4c(c3)CN(C3COC3)CC[C@H]4NC(=O)c3cn(C(C)(C)C)nn3)n2)cn1,> 100,> 100,72.6,> 100,41.4,> 100,> 100,> 100,> 100,> 100,99.1,> 100,38.9,> 100,> 100,> 100,66.3,> 100,36.6,> 100
COc1cc(C(=O)/C=C/c2cccnc2Nc2ccc(Cl)cc2)cc(OC)c1OC,1.58,3.24,1.83,3.55,1.02,2.35,1.64,4.4,1.5,2.92,1.71,3.11,1.16,2.45,1.59,5.14,1.77,3.18,1.75,3.22
COC(=O)COc1ccccc1/C=C1/N=C(c2ccccc2)N(c2c(C)n(C)n(-c3ccccc3)c2=O)C1=O,> 100,> 100,79.6,> 100,43.4,> 100,> 100,> 100,–,–,> 100,> 100,> 100,> 100,> 100,> 100,> 100,> 100,> 100,> 100
COC(=O)C1C(=O)C(C(=O)OC)C2CCC1N2C (stereo unspecified),–,–,–,> 100,–,> 100,–,> 100,–,> 100,–,> 100,–,> 94.9,–,> 65.8,–,> 100,–,> 100
CCN(CC)CCOc1ccc(/C(=C(\C)Cc2ccc(OC)cc2)c2ccc(O)cc2)cc1,1.98,5.08,1.8,3.76,0.145,2.3,2.43,7.74,1.89,3.81,1.75,3.24,1.86,4.26,1.41,3.14,1.66,3.1,–,–
